Measured values: US9757354B2 (priority 2015, dated 2017)
≈ marks a conversion by molar mass, not a printed value. Read-outs that look alike come from different tables or passages of the source.

How the values were obtained:
physchem = conditions: 20 °C
cyanide toxicity [1] = conditions: mouse, in vivo; cited from earlier work
cyanide toxicity [2] = conditions: in vivo; cited from earlier work
[3] = rabbit, in vivo

With `O=C(O)C1(O)CSC(O)(C(=O)O)CS1` (stereo not shown) [Compound 2, 2,5-dihydroxy-1,4-dithiane-2,5-dicarboxylic acid] the solubility (physchem) was 200 mM (≈ 48.1 mg/mL).

For `O.O.O.O.O=C(O)C1(O)CSC(O)(C(=O)O)CS1.[Na].[Na]` (stereo not shown) [Compound 3a, disodium 2,5-dihydroxy-1,4-dithiane-2,5-dicarboxylic acid tetrahydrate], the rescue (cyanide toxicity [1]) is given as “highly effective” and the rescue (cyanide toxicity [2]) is given as “highly effective”.

For `O=C([O-])C1(O)CSC(O)(C(=O)[O-])CS1.[Li+].[Li+]` (stereo not shown) [Compound 3b, Dilithium 2,5-Dihydroxy-1,4-dithiane-2,5-dicarboxylate], the solubility (physchem) was 1050 mM.

With `O=C([O-])C1(O)CSC(O)(C(=O)[O-])CS1.[K+].[K+]` (stereo not shown) [Compound 3c, Dipotassium 2,5-Dihydroxy-1,4-dithiane-2,5-dicarboxylate] the solubility (physchem) was 570 mM.

In the case of `NCCCC[C@H](N)C(=O)O.NCCCC[C@H](N)C(=O)O.O=C(O)C1(O)CSC(O)(C(=O)O)CS1` (stereo not shown) [lysine salt], the “absorption of the antidote” value [3] is reported as “poor absorption” and the tolerability of injection [3] is reported as “poorly tolerated”.
